Assay results taken from the supplement of paper PMC10307832.

Experiments:
Assay in all cases: relative viability (nuclei count vs DMSO), 5 days (fraction); higher = more cells survive
[1] = compound: C1COCCN1C2=NC(=NC3=C2OC4=C3C=CC=N4)C5=CC(=CC=C5)NC(=O)C6=CN=C(C=C6)N + Nc1nc2[nH]cc(CCc3ccc(C(=O)N[C@@H](CCC(=O)O)C(=O)O)cc3)c2c(=O)[nH]1 [Pemetrexed] (partner 0.2 µM)
Outline: (§1)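 A single step with final 0.05% Triton X-100, 1% formaldehyde and 1 ug/ml Hoechst fixed the cells and stained nuclei 5 days after treatment. Lung cancer cell lines in 1536-well plates had been treated by pin tool the day after seeding with one drug alone or a fixed anchor-drug dose plus five library-drug doses (not always all listed) in √10 steps, and nuclei were counted on 4× images. Relative viability is the ratio of nuclei in treated wells to nuclei in vehicle wells, taken as the median of duplicate plates.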

SGI-1776 + AZD7762 = compound: CN1CCC(CNc2ccc3ncc(-c4cccc(OC(F)(F)F)c4)n3n2)CC1 [SGI-1776] + NC(=O)Nc1cc(-c2cccc(F)c2)sc1C(=O)N[C@H]1CCCNC1 [AZD7762] (partner 0.2 µM)
Outline: as §1

Entinostat + Foretinib = compound: Nc1ccccc1NC(=O)c1ccc(CNC(=O)OCc2cccnc2)cc1 [Entinostat] + COc1cc2c(Oc3ccc(NC(=O)C4(C(=O)Nc5ccc(F)cc5)CC4)cc3F)ccnc2cc1OCCCN1CCOCC1 [Foretinib] (partner 0.25 µM)
Outline: as §1

Entinostat + Dasatinib = compound: Nc1ccccc1NC(=O)c1ccc(CNC(=O)OCc2cccnc2)cc1 [Entinostat] + Cc1nc(Nc2ncc(C(=O)Nc3c(C)cccc3Cl)s2)cc(N2CCN(CCO)CC2)n1 [Dasatinib] (partner 0.075 µM)
Outline: as §1

Row | Cell Line | relative viability ([1]; first compound 0.02 µM) | relative viability ([1]; first compound 0.06325 µM) | relative viability ([1]; first compound 0.2 µM) | relative viability ([1]; first compound 0.6325 µM) | relative viability ([1]; first compound 2 µM) | relative viability (SGI-1776 + AZD7762; first compound 0.08 µM) | relative viability (SGI-1776 + AZD7762; first compound 0.8 µM) | relative viability (SGI-1776 + AZD7762; first compound 2.53 µM) | relative viability (SGI-1776 + AZD7762; first compound 8 µM) | relative viability (Entinostat + Foretinib; first compound 0.02 µM) | relative viability (Entinostat + Foretinib; first compound 0.06325 µM) | relative viability (Entinostat + Foretinib; first compound 0.2 µM) | relative viability (Entinostat + Foretinib; first compound 0.6325 µM) | relative viability (Entinostat + Foretinib; first compound 2 µM) | relative viability (Entinostat + Dasatinib; first compound 0.02 µM) | relative viability (Entinostat + Dasatinib; first compound 0.06325 µM) | relative viability (Entinostat + Dasatinib; first compound 0.2 µM) | relative viability (Entinostat + Dasatinib; first compound 0.6325 µM) | relative viability (Entinostat + Dasatinib; first compound 2 µM)
1 | NCI-H838 | 0.257 | 0.246 | 0.25 | 0.242 | 0.167 | 0.944 | 0.961 | 0.932 | 0.916 | 1.05 | 1.23 | 1.12 | 0.746 | 0.321 | 0.424 | 0.324 | 0.455 | 0.469 | 0.258
2 | HARA | 0.253 | 0.261 | 0.204 | 0.246 | 0.141 | 0.345 | 0.306 | 0.292 | 0.218 | 0.903 | 0.913 | 1.01 | 0.341 | 0.416 | 0.299 | 0.256 | 0.256 | 0.273 | 0.168
3 | NCI-H23 | 0.836 | 0.721 | 0.529 | 0.493 | 0.344 | 0.252 | 0.278 | 0.281 | 0.235 | 1.05 | 1.09 | 1.01 | 0.445 | 0.43 | 0.781 | 0.971 | 0.961 | 0.741 | 0.378
4 | LOU-NH91 | 0.353 | 0.363 | 0.349 | 0.337 | 0.456 | 0.797 | 0.793 | 0.7 | 0.593 | 0.937 | 0.984 | 0.919 | 0.844 | 0.779 | 0.565 | 0.607 | 0.574 | 0.566 | 0.509
5 | LCLC-103H | 0.466 | 0.435 | 0.444 | 0.465 | 0.419 | 0.9 | 0.776 | 0.675 | 0.729 | 0.802 | 0.66 | 0.612 | 0.666 | 0.384 | 0.478 | 0.458 | 0.48 | 0.362 | 0.224
6 | SW 1573 | 0.925 | 0.731 | 0.794 | 0.812 | 0.322 | – | – | – | – | 0.966 | 0.927 | 0.877 | 0.917 | 0.7 | 0.532 | 0.518 | 0.711 | 0.627 | 0.454
7 | EKVX | 0.436 | 0.396 | 0.486 | 0.382 | 0.323 | 0.699 | 0.713 | 0.638 | 0.646 | 0.879 | 0.996 | 0.863 | 0.572 | 0.409 | 0.656 | 0.51 | 0.492 | 0.435 | 0.343
8 | IA-LM | – | – | – | – | – | – | – | – | – | 1.13 | 1.22 | 1.43 | 1.05 | 0.764 | – | – | – | – | –
9 | HCC-827 | 0.249 | 0.284 | 0.262 | 0.278 | 0.265 | 0.25 | 0.26 | 0.241 | 0.146 | 0.954 | 0.962 | 0.83 | 0.737 | 0.355 | 0.255 | 0.269 | 0.23 | 0.227 | 0.294
10 | NCI-H661 | 0.923 | 0.918 | 0.889 | 0.921 | 0.602 | – | – | – | – | 0.929 | 0.963 | 0.923 | 0.697 | 0.575 | 1.04 | 0.967 | 1.03 | 0.771 | 0.372
11 | CAL-12T | 1.2 | 1.27 | 1.17 | 1.32 | 0.412 | 0.739 | 0.667 | 0.567 | 0.654 | 1.17 | 1.14 | 1.27 | 1.07 | 1.01 | 0.571 | 0.427 | 0.375 | 0.295 | 0.218
12 | NCI-H2342 | 0.839 | 0.739 | 0.753 | 0.796 | 0.713 | 0.57 | 0.625 | 0.442 | 0.517 | 1.04 | 1.22 | 0.947 | 0.924 | 0.787 | 0.305 | 0.319 | 0.291 | 0.274 | 0.278
13 | SW 900 | 0.497 | 0.476 | 0.455 | 0.469 | 0.254 | 0.852 | 0.745 | 0.676 | 0.568 | 0.946 | 0.878 | 1.04 | 0.674 | 0.533 | 0.795 | 0.589 | 0.661 | 0.444 | 0.248
14 | LC-2-ad | 0.263 | 0.292 | 0.289 | 0.253 | 0.262 | 0.886 | 0.901 | 0.771 | 0.691 | 0.907 | 0.905 | 0.723 | 0.512 | 0.338 | 0.516 | 0.533 | 0.428 | 0.222 | 0.165
15 | EPLC-272H | 0.301 | 0.318 | 0.272 | 0.298 | 0.319 | 0.188 | 0.224 | 0.364 | 0.252 | 0.684 | 0.783 | 0.512 | 0.243 | 0.223 | 0.364 | 0.417 | 0.289 | 0.195 | 0.2
16 | A-427 | 1 | 0.985 | 0.944 | 0.914 | 0.739 | 0.685 | 0.681 | 0.686 | 0.627 | 1.2 | 1.16 | 1.06 | 1 | 0.811 | 0.707 | 0.679 | 0.614 | 0.525 | 0.442
17 | NCI-H650 | 0.95 | 0.918 | 0.945 | 0.835 | 0.782 | 1.21 | 0.941 | 0.994 | 1.17 | 1.16 | 0.933 | 1.04 | 0.839 | 0.477 | 0.496 | 0.498 | 0.455 | 0.357 | 0.26
